Results as given in patent US10285943B2, “Aptamer bioconjugate drug delivery device” (GreenMark Biomedical Inc., priority 2010, dated 2019).

Tested on: D 245 glioblastoma multiform human xenograph
Experiment: In vivo studies of human xenographs implanted in athymic mice
Conditions: Free Dox control
Description: Athymic mice were chosen for these studies because normal mice are capable of immunologically rejecting implanted foreign xenographs, specifically human tumors. The animals (both control and treated) were monitored for tumor regression and survival.
The procedure consisted of inoculation of a tumor brei into a subcutaneous site in athymic mice. The subcutaneous tumors were grown to approximately 200 cubic millimeters in size (6-8 mm in diameter). Subsequently, either the free drug or the drug loaded nanoparticles were injected at the tumor site or i.p. (intra peritoneal). […] The animals were treated in groups of 8 to 10 individuals.
Dispersions were 100 mg nanospheres/5 mL saline (1×0.5% Dox-nano), 200 mg nanospheres/5 mL saline (2×0.5% Dox-nano) or 400 mg nanospheres/5 mL saline (4×0.5% Dox-nano).
Injections were each 0.25 mL/20 gram mouse (all single injections).
T-C is defined as: Average of (days lived by drug-treated animal minus days lived by control animals); i.e., increased life span in days.
The Control was provided as follows: Varied—Untreated mice injected with saline; Untreated mice; Mice treated with drug-free nanospheres (100 mgs/5 mL saline).
P value: Test run for significance. P values are calculated using non-parametric statistical method by Hollander and Wolfe.
Regressions: Indicate that tumors drop below previous measurement and stay below for 2 consecutive measurements.

Substance: (7S,9S)-7-[(2R,4S,5S,6S)-4-amino-5-hydroxy-6-methyloxan-2-yl]oxy-6,9,11-trihydroxy-9-(2-hydroxyethyl)-4-methoxy-8,10-dihydro-7H-tetracene-5,12-dione [Free Dox]
- Regressions (5 mg/kg, animals with regression/group): 0/10
- Toxic deaths (5 mg/kg, deaths/group): 0/10
- T-C (increased life span in days) (drug dose 5 mg/kg, injected at the tumor site or i.p.): 1.53 days
